Data as given in ChEMBL document CHEMBL1201862, “PubChem BioAssay data set” (2004).
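Each compound was tested at five concentrations against cells in 96-well plates for 48 hours. GI50 = concentration required for 50% inhibition of growth.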 Activity calls are given as the source filed them. Rule as the data show it: active = GI50 up to about 1.1 µM and inactive = higher.

Tests used:
Experiment in all cases: growth of human tumour cells (NCI), 48 h
[1] = test system: IGROV-1
[2] = test system: HCT-116
[3] = test system: OVCAR-5
[4] = test system: SK-MEL-2
[5] = test system: KM12
[6] = test system: SNB-75
[7] = test system: CCRF-CEM
[8] = test system: SN12C
[9] = test system: A498
[10] = test system: Malme-3M
[11] = test system: MCF7
[12] = test system: SF-295
[13] = test system: SK-MEL-5
[14] = test system: HCT-15
[15] = test system: SNB-19
[16] = test system: NCI/ADR-RES
[17] = test system: ACHN
[18] = test system: HT-29
[19] = test system: NCI-H522
[20] = test system: HOP-62
[21] = test system: MDA-MB-435
[22] = test system: MDA-N
[23] = test system: NCI-H460
[24] = test system: HL-60
[25] = test system: LOX IMVI
[26] = test system: 786-0
[27] = test system: A549
[28] = test system: SK-MEL-28
[29] = test system: TK-10
[30] = test system: SW-620
[31] = test system: RXF 393
[32] = test system: K562
[33] = test system: UACC-257
[34] = test system: OVCAR-4
[35] = test system: HCC 2998
[36] = test system: SF-539
[37] = test system: UACC-62
[38] = test system: U-251
[39] = test system: UO-31
[40] = test system: OVCAR-8
[41] = test system: PC-3
[42] = test system: MDA-MB-231
[43] = test system: NCI-H226
[44] = test system: RPMI-8226
[45] = test system: T47D
[46] = test system: COLO 205
[47] = test system: SK-OV-3
[48] = test system: Hs-578T
[49] = test system: DU-145
[50] = test system: BT-549
[51] = test system: HOP-92
[52] = test system: MOLT-4
[53] = test system: EKVX
[54] = test system: CAKI-1
[55] = test system: OVCAR-3
[56] = test system: M14
[57] = test system: NCI-H23
[58] = test system: SF-268

Compound: NC1=CN(CCCO)C2=N/C(=C\c3ccco3)C(=O)N12
- GI50 [1]: > 100 µM (inactive)
- GI50 [2]: > 100 µM (inactive)
- GI50 [3]: > 100 µM (inactive)
- GI50 [4]: > 100 µM (inactive)
- GI50 [5]: > 100 µM (inactive)
- GI50 [6]: > 100 µM (inactive)
- GI50 [7]: > 100 µM (inactive)
- GI50 [8]: > 100 µM (inactive)
- GI50 [9]: > 100 µM (inactive)
- GI50 [10]: > 100 µM (inactive)
- GI50 [11]: > 100 µM (inactive)
- GI50 [12]: > 100 µM (inactive)
- GI50 [13]: > 100 µM (inactive)
- GI50 [14]: > 100 µM
- GI50 [15]: > 100 µM (inactive)
- GI50 [16]: > 100 µM (inactive)
- GI50 [17]: > 100 µM (inactive)
- GI50 [18]: > 100 µM (inactive)
- GI50 [19]: > 100 µM (inactive)
- GI50 [20]: > 100 µM (inactive)
- GI50 [21]: > 100 µM (inactive)
- GI50 [22]: > 100 µM (inactive)
- GI50 [23]: > 100 µM (inactive)
- GI50 [24]: > 100 µM (inactive)
- GI50 [25]: > 100 µM (inactive)
- GI50 [26]: > 100 µM (inactive)
- GI50 [27]: > 100 µM (inactive)
- GI50 [28]: > 100 µM (inactive)
- GI50 [29]: > 100 µM (inactive)
- GI50 [30]: > 100 µM (inactive)
- GI50 [31]: > 100 µM (inactive)
- GI50 [32]: > 100 µM (inactive)
- GI50 [33]: 48.9 µM (inactive)
- GI50 [34]: > 100 µM (inactive)
- GI50 [35]: > 100 µM (inactive)
- GI50 [36]: > 100 µM (inactive)
- GI50 [37]: > 100 µM (inactive)
- GI50 [38]: > 100 µM (inactive)
- GI50 [39]: 94 µM (inactive)
- GI50 [40]: > 100 µM (inactive)
- GI50 [41]: > 100 µM (inactive)
- GI50 [42]: > 100 µM (inactive)
- GI50 [43]: > 100 µM (inactive)
- GI50 [44]: > 100 µM (inactive)
- GI50 [45]: > 100 µM (inactive)
- GI50 [46]: > 100 µM (inactive)
- GI50 [47]: > 100 µM (inactive)
- GI50 [48]: > 100 µM (inactive)
- GI50 [49]: > 100 µM (inactive)
- GI50 [50]: > 100 µM (inactive)
- GI50 [51]: > 100 µM (inactive)
- GI50 [52]: > 100 µM (inactive)
- GI50 [53]: > 100 µM (inactive)
- GI50 [54]: > 100 µM (inactive)
- GI50 [55]: > 100 µM (inactive)
- GI50 [56]: > 100 µM (inactive)
- GI50 [57]: > 100 µM (inactive)
- GI50 [58]: > 100 µM (inactive)

Compound: Cn1c(=O)c2c(nc(Cc3ccccc3)n2CC(=O)O)n(C)c1=O
- GI50 [1]: > 100 µM (inactive)
- GI50 [2]: > 100 µM (inactive)
- GI50 [3]: > 100 µM (inactive)
- GI50 [4]: > 100 µM (inactive)
- GI50 [5]: > 100 µM (inactive)
- GI50 [6]: > 100 µM (inactive)
- GI50 [7]: > 100 µM (inactive)
- GI50 [8]: > 100 µM (inactive)
- GI50 [9]: > 100 µM (inactive)
- GI50 [10]: > 100 µM (inactive)
- GI50 [12]: > 100 µM (inactive)
- GI50 [13]: > 100 µM (inactive)
- GI50 [14]: > 100 µM
- GI50 [15]: > 100 µM (inactive)
- GI50 [16]: > 100 µM (inactive)
- GI50 [17]: > 100 µM (inactive)
- GI50 [18]: > 100 µM (inactive)
- GI50 [19]: > 100 µM (inactive)
- GI50 [20]: > 100 µM (inactive)
- GI50 [21]: > 100 µM (inactive)
- GI50 [22]: > 100 µM (inactive)
- GI50 [23]: > 100 µM (inactive)
- GI50 [25]: > 100 µM (inactive)
- GI50 [26]: > 100 µM (inactive)
- GI50 [27]: > 100 µM (inactive)
- GI50 [28]: > 100 µM (inactive)
- GI50 [29]: > 100 µM (inactive)
- GI50 [30]: > 100 µM (inactive)
- GI50 [31]: > 100 µM (inactive)
- GI50 [33]: > 100 µM (inactive)
- GI50 [34]: > 100 µM (inactive)
- GI50 [35]: > 100 µM (inactive)
- GI50 [37]: > 100 µM (inactive)
- GI50 [38]: > 100 µM (inactive)
- GI50 [39]: > 100 µM (inactive)
- GI50 [40]: > 100 µM (inactive)
- GI50 [41]: > 100 µM (inactive)
- GI50 [42]: > 100 µM (inactive)
- GI50 [43]: > 100 µM (inactive)
- GI50 [45]: > 100 µM (inactive)
- GI50 [48]: > 100 µM (inactive)
- GI50 [49]: > 100 µM (inactive)
- GI50 [50]: > 100 µM (inactive)
- GI50 [51]: > 100 µM (inactive)
- GI50 [52]: > 100 µM (inactive)
- GI50 [53]: > 100 µM (inactive)
- GI50 [54]: > 100 µM (inactive)
- GI50 [55]: > 100 µM (inactive)
- GI50 [56]: > 100 µM (inactive)
- GI50 [57]: > 100 µM (inactive)
- GI50 [58]: > 100 µM (inactive)
